From patent US20060100168A1, “Method of treating cancer using adenosine and its analogs” (The Trustee of Boston University, priority 2002, published 2006)
Entries after “also recorded” stand apart in the source; their conditions may differ.

Legend:
[1] = tested on: MCF-7 cells; assay: Thymidine incorporation assay; assay type: cell-based, human; details: treated 24 hours before thymidine
Procedure: Thymidine Incorporation Assay. Thymidine incorporation assays were performed as described (Zhang, Y., Wang, Z., and Ravid, K. The cell cycle in polyploid megakaryocytes is associated with reduced activity of cyclin B1-dependent cdc2 kinase. J Biol Chem, 271: 4266-4272, 1996) with modifications. Rat bone marrow cells were cultured in 25 cm^2 flasks at a concentration of 20×10^6 cells per 2 ml. After drug treatment for 24 hours, cells were incubated with ^3H-thymidine at a final concentration of 3 μCi/ml for 8 hours. For MCF-7 cells, cells were cultured in 6-well plates and incubated with ^3H-thymidine for 2 hours after drug treatment. Cells were divided into two portions, sixty percent of which were processed as described (Id.) to obtain tritium counts. The rest of the cells were lysed with Western blotting lysis buffer and protein concentrations were determined by Bio-Rad protein assay reagent (Bio-Rad, Hercules, Calif.). Tritium counts were normalized with corresponding protein concentrations to account for cell number variations.

[2] = tested on: Hs578T cells; assay: Apoptosis by propidium iodide staining and flow cytometry; assay type: cell-based, human; details: 100 μM, two days
Procedure: Flow Cytometry and Apoptosis Analysis: Cells were detached from tissue culture plates by trypsin treatment. Cells were collected by centrifugation at 1200 g for 5 minutes and washed once with PBS. Staining of cells with propidium iodide and analysis on a flow cytometer (FACScan, Becton Dickinson, Research Triangle Park, N.C.) was performed as described before (42). Data were analyzed with CellQuest software (Becton Dickinson, Research Triangle Park, N.C.). The percentage of cells appearing with a ploidy level smaller than a diploid content was calculated as an estimate of cells undergoing apoptosis.

[3] = in vivo application; Fishman et al. 2002; cited from earlier work
[4] = tested on: estrogen receptor β (ERβ) mRNA; assay: Semi-quantitative RT-PCR of ERβ mRNA in MCF-7 cells; assay type: cell-based, human; details: 100 μM
Procedure: (§1) Total RNA preparation and Reverse Transcription Polymerase Chain Reaction (RT-PCR): Total RNA from MCF-7 cells was prepared with Trizol (Invitrogen, Carlsbad, Calif.) as described before (41). For reverse transcription, 2 μg of RNA were used in a […] with random primers and M-MLV reverse transcriptase (Invitrogen, Carlsbad, Calif.), following the manufacturer's protocol. To control for possible contamination from genomic DNA in subsequent PCR reactions, control reverse transcription reactions were carried out under identical conditions, only without reverse transcriptase. After reverse transcription, 5% of the product was used in each PCR reaction. For the experiments analyzing A3 adenosine receptor (A3AR) expression, 27 cycles were used in the PCR reactions. Specific primers were designed for human A3AR, which match to two separate exons, according to genomic sequences (from GenBank). Sequences for the sense and antisense A3AR primers are: 5′tccatcatgtccttgctg3′ (SEQ ID NO: 1) and 5′gcacatgacaaccaggg3′ (SEQ ID NO.: 2). In the experiments analyzing estrogen receptor a (ERα) mRNA, semi-quantitative PCR reactions were carried out with 23 cycles for ERα primers and 19 cycles for GAPDH primers (used as a control). The cycle numbers were tested in previous experiments not to produce saturation effects. […]

[5] = tested on: estrogen receptor α (ERα) mRNA; assay: Semi-quantitative RT-PCR of ERα mRNA in MCF-7 cells; assay type: cell-based, human; details: 100 μM
Procedure: as §1

[6] = tested on: CMV promoter; assay: Reporter gene assay pCMV-β-Gal in MCF-7 cells; assay type: cell-based, human; details: MCF-7 transfected with pCMV-β-Gal; 12 hours
Procedure: Transfections and Reporter Gene Assay: Transient transfection was performed using FuGene6 (Roche, Indianapolis, Ind.) transfection reagent according to manufacturer's protocol. Circular reporter plasmid pERE-Tk-Luc at 10 μg and 10 μg of pCMV-β-Gal (as a measure of efficiency of trasnfection) were transfected with 50 μl of FuGene6. Cells were split into 6 well plates 12 hours after transfection, and incubated overnight in fresh medium. […] Luciferase and β-galactosidase activities were measured as described before (43, 44).

## CNC(=O)[C@H]1O[C@@H](n2cnc3c(NCc4cccc(I)c4)ncnc32)[C@H](O)[C@@H]1O [IB-MECA, N^6-(3-iodobenzyl)adenosine-5′-N-methyluronamide]
[1]
  Thymidine incorporation decreased to: 28%
[2]
  Apoptosis, in words: substantial apoptosis
[3]
  Effect on blood cell counts: no inhibitory effect
[4]
  Estrogen receptor β message level: not significantly reduced
[5]
  Time of first sign of decrease of ERα mRNA: 4 h
[5]; 4 to 24 hours, compared to GAPDH
  ERα mRNA level, in words: strongly downregulated; also recorded: dramatic decrease
[6]
  CMV promoter activity: did not show any decrease in activity
